Our source for the Activity, IC50 and MIC values is ChEMBL document CHEMBL3046790, “Antioxidant potential and antimicrobial screening of some novel imidazole derivatives: greenway efficient one pot synthesis” (Med Chem Res, 2012).

≈ marks a conversion by molar mass, not a printed value.

Common to all, as to type: functional
Test [1] can be described thus: Antioxidant activity assessed as hydroxyl radical scavenging activity at 40 uM after 60 min using thiobarbutaric acid by spectrophotometry.
Test [2] is described as follows: Antioxidant activity assessed as superoxide scavenging activity after 15 min by PMS/NADH-NBT assay.
Test [3] in a line: Antioxidant activity assessed as hydroxyl radical scavenging activity at 10 uM after 60 min using thiobarbutaric acid by spectrophotometry.
Test [4] in a line: Antioxidant activity assessed as superoxide scavenging activity at 80 uM after 15 min by PMS/NADH-NBT assay.
The nature of test [5]: Antioxidant activity assessed as DPPH scavenging activity at 30 uM after 30 min by spectrophotometry. Background: Loss of DPPH colour is used to gauge radical scavenging.
Test [6] in a line: Antioxidant activity assessed as hydroxyl radical scavenging activity at 60 uM after 60 min using thiobarbutaric acid by spectrophotometry.
Test [7] is described as follows: Antioxidant activity assessed as hydroxyl radical scavenging activity at 80 uM after 60 min using thiobarbutaric acid by spectrophotometry.
Test [8] in a line: Antioxidant activity assessed as superoxide scavenging activity at 100 uM after 15 min by PMS/NADH-NBT assay.
Test [9] is described as follows: Antioxidant activity assessed as DPPH scavenging activity at 10 uM after 30 min by spectrophotometry.
A short description of test [10]: Antioxidant activity assessed as superoxide scavenging activity at 40 uM after 15 min by PMS/NADH-NBT assay.
Test [11] in a line: Antioxidant activity assessed as hydroxyl radical scavenging activity at 20 uM after 60 min using thiobarbutaric acid by spectrophotometry.
Test [12] can be described thus: Antioxidant activity assessed as hydroxyl radical scavenging activity after 60 min using thiobarbutaric acid by spectrophotometry.
A short description of test [13]: Antioxidant activity assessed as hydroxyl radical scavenging activity at 100 uM after 60 min using thiobarbutaric acid by spectrophotometry.
Test [14] can be described thus: Antioxidant activity assessed as superoxide scavenging activity at 60 uM after 15 min by PMS/NADH-NBT assay.
The nature of test [15]: Antioxidant activity assessed as DPPH scavenging activity at 50 uM after 30 min by spectrophotometry.
Test [16] can be described thus: Antioxidant activity assessed as DPPH scavenging activity at 40 uM after 30 min by spectrophotometry.
The nature of test [17]: Antioxidant activity assessed as superoxide scavenging activity at 10 uM after 15 min by PMS/NADH-NBT assay.
Test [18] is described as follows: Antioxidant activity assessed as DPPH scavenging activity after 30 min by spectrophotometry.
The nature of test [19]: Antioxidant activity assessed as DPPH scavenging activity at 20 uM after 30 min by spectrophotometry.
Test [20] can be described thus: Antioxidant activity assessed as superoxide scavenging activity at 20 uM after 15 min by PMS/NADH-NBT assay.
Another test has as its system Klebsiella pneumoniae. Description: Antimicrobial activity against Klebsiella pneumoniae after 24 hr.
Another test relates to Aspergillus niger. As to the kind of experiment: Antimicrobial activity against Aspergillus niger after 24 hr.
The test system of another test is Escherichia coli. As to the kind of experiment: Antimicrobial activity against Escherichia coli after 24 hr.
Another test relates to Aspergillus flavus. As to the kind of experiment: Antimicrobial activity against Aspergillus flavus after 24 hr.
For another test, the system named is Candida. Description: Antimicrobial activity against Candida-6 after 24 hr. The note with it: Candida, 6, 24 h.
The test system of another test is Staphylococcus aureus. As to the kind of experiment: Antimicrobial activity against Staphylococcus aureus after 24 hr.

Broadly, the IC50 is the point on the concentration scale where inhibition reaches its midpoint. In the case of `O=C1O[C@H]([C@@H](O)CO)C(O)=C1O` [ASCORBIC ACID], the Activity in test [1] was found to be 48.6%; in test [3], 24.3%; in test [4] it was 66.5%; in test [5], 48.8%; in test [6], 65.3%; in test [7], 70.4%. Further, the Activity in [8] is 73.5%; in [9], 26.5%; in test [10], 55.5%; in test [11] it was 41.3%; in test [13], 78.5%; in [14], 62.1%. For the same compound, the Activity is 75.4% in [15]; 66.5% in test [16]; 32.6% in test [17]; 34.5% in test [19]; 48.8% in test [20]. Besides, the IC50 stood at 2.8 µg/mL (≈ 15.9 µM) in [2], 2.72 µg/mL (≈ 15.4 µM) in test [12] and 3.1 µg/mL (≈ 17.6 µM) in [18].
In general, MIC refers to the lowest concentration found to suppress growth. The low end stands for inhibition by little substance, the high end for a need for much substance. For `COc1ccc(-n2c(-c3ccccc3)nc(C)c2C)cc1`, the Activity in test [1] was 43.7%; in [2] it was “Dose-dependent effect”; in [3] it was 35.6%; in test [4] it was 68.4%; in [5], 59.6%; in test [6] it was 48.3%. In addition, the Activity in test [7] was 50.6%; in [8] it was 59.6%; in [9] it was 14.1%; in test [10] it was 63.1%; in test [11], 40.2%; in [12], “Dose-dependent effect”. The Activity is 52.9% in test [13]; 64.9% in test [14]; 55.5% in [15]; 56.6% in [16]; 10.5% in test [17]; “Dose-dependent effect” in test [18]. Further, the Activity was 28.3% in [19] and 28.1% in test [20]. Moreover, the MIC against Klebsiella pneumoniae came to 100 µg/mL (≈ 359 µM); against Aspergillus niger, 100 µg/mL (≈ 359 µM); in the test on Escherichia coli, 25 µg/mL (≈ 89.8 µM); in the test on Aspergillus flavus it was 25 µg/mL (≈ 89.8 µM); with Candida, 25 µg/mL (≈ 89.8 µM); against Staphylococcus aureus, 50 µg/mL (≈ 180 µM). Moreover, the IC50 in [2] was 3.74 µg/mL (≈ 13.4 µM); in test [12] it was 4.5 µg/mL (≈ 16.2 µM); in test [18] it was 3.64 µg/mL (≈ 13.1 µM).
Turning to `C[C@@H]1[C@H](O)[C@@H](C)/C=C/C=C/C=C/C=C/C=C/C=C/C=C/[C@H](O[C@@H]2O[C@H](C)[C@@H](O)[C@H](N)[C@@H]2O)C[C@@H]2O[C@](O)(C[C@@H](O)C[C@@H](O)[C@H](O)CC[C@@H](O)C[C@@H](O)CC(=O)O[C@H]1C)C[C@H](O)[C@H]2C(=O)O` [AMPHOTERICIN B], the MIC in the test on Aspergillus niger is 50 µg/mL (≈ 54.1 µM); against Aspergillus flavus, 25 µg/mL (≈ 27.1 µM); against Candida it was 12.5 µg/mL (≈ 13.5 µM).
For `COc1cc(OC)cc(-n2c(-c3ccccc3)nc(C)c2C)c1`, the Activity is 47.1% in [1]; “Dose-dependent effect” in test [2]; 34.5% in test [3]; 59% in [4]; 52.5% in [5]; 54% in test [6]. For the same compound, the Activity in test [7] is 55.2%; in test [8], 61%; in test [9] it was 17.2%; in test [10] it was 49.5%; in test [11], 39.1%; in [12], “Dose-dependent effect”. Besides, the Activity in test [13] was 58.6%; in test [14], 53.3%; in test [15] it was 55.5%; in [16], 57.6%; in [17], 13.3%; in [18], “Dose-dependent effect”. Further, the figures for the Activity in test [19] and in test [20] were 20.2% and 32.4%, respectively. Also, the MIC against Klebsiella pneumoniae worked out at 100 µg/mL (≈ 324 µM); with Aspergillus niger, 25 µg/mL (≈ 81.1 µM); in the test on Escherichia coli it was 50 µg/mL (≈ 162 µM); in the test on Aspergillus flavus, 25 µg/mL (≈ 81.1 µM); in the test on Candida, 25 µg/mL (≈ 81.1 µM); in the test with Staphylococcus aureus, 25 µg/mL (≈ 81.1 µM). The IC50 in test [2] worked out at 4.16 µg/mL (≈ 13.5 µM); in [12], 4.14 µg/mL (≈ 13.4 µM); in test [18] it was 3.8 µg/mL (≈ 12.3 µM).
As for `COc1ccc(-n2c(-c3ccc(F)cc3)nc(C)c2C)cc1`, the Activity in [1] was 43.7%; in [2] it was “Dose-dependent effect”; in test [3], 39.1%; in [4], 45.7%; in test [5] it was 46.5%; in test [6], 48.3%. For the same compound, the Activity was 50.6% in test [7]; 41% in [8]; 11.1% in [9]; 39% in test [10]; 48.3% in [11]; “Dose-dependent effect” in [12]. Further, the Activity is 52.9% in test [13]; 41.9% in [14]; 68.7% in [15]; 64.6% in [16]; 38.1% in test [17]; “Dose-dependent effect” in test [18]. The values for the Activity in [19] and in test [20] were 20.2% and 39%, respectively. Further, the MIC in the test with Klebsiella pneumoniae came to 50 µg/mL (≈ 169 µM); against Aspergillus niger it was 25 µg/mL (≈ 84.4 µM); with Escherichia coli, 25 µg/mL (≈ 84.4 µM); against Aspergillus flavus it was 25 µg/mL (≈ 84.4 µM); in the test with Candida, 25 µg/mL (≈ 84.4 µM); against Staphylococcus aureus, 50 µg/mL (≈ 169 µM). In addition, the results for the IC50 in test [2], in test [12] and in [18] were 5.2 µg/mL (≈ 17.5 µM), 3.84 µg/mL (≈ 13 µM) and 3.46 µg/mL (≈ 11.7 µM), respectively.
In the test on Klebsiella pneumoniae, `O=C(O)c1cn(C2CC2)c2cc(N3CCNCC3)c(F)cc2c1=O` [CIPROFLOXACIN] gave an MIC of 100 µg/mL (≈ 302 µM).
On to `COc1cc(OC)cc(-n2c(-c3ccc(F)cc3)nc(C)c2C)c1`, for which the Activity was 47.1% in test [1]; “Dose-dependent effect” in test [2]; 35.6% in test [3]; 58.1% in test [4]; 42.4% in [5]; 57.5% in test [6]. The Activity in [7] was 55.2%; in [8], 55.2%; in test [9] it was 12.1%; in test [10], 55.2%; in test [11], 40.2%; in test [12], “Dose-dependent effect”. Further, the Activity in test [13] is 54%; in test [14] it was 60%; in test [15] it was 56.6%; in [16], 57.6%; in [17], 21.9%; in [18] it was “Dose-dependent effect”. Besides, the Activity came out at 19.2% in test [19] and 24.8% in [20]. The MIC amounted to 100 µg/mL (≈ 306 µM) against Klebsiella pneumoniae; 50 µg/mL (≈ 153 µM) in the test on Aspergillus niger; 50 µg/mL (≈ 153 µM) against Escherichia coli; 50 µg/mL (≈ 153 µM) against Aspergillus flavus; 50 µg/mL (≈ 153 µM) with Candida; 50 µg/mL (≈ 153 µM) in the test with Staphylococcus aureus. The half-maximal inhibitory concentration (IC50) in test [2] was determined as 4.16 µg/mL (≈ 12.7 µM); in [12], 4.18 µg/mL (≈ 12.8 µM); in test [18], 3.98 µg/mL (≈ 12.2 µM).
